Source: patent publication US11208433B2, “Peptide for inhibiting skin inflammation and composition for preventing or treating skin inflammation containing the same” (AVIXGEN Inc., priority 2017, dated 2021)

Experiments:
[1] = tested on: atopic dermatitis animal model; test: Ear thickness measurement in atopic dermatitis animal model; assay type: in vivo, NC/Nga mouse; conditions: FIG. 2; for ear thickness compared with induced control group (group 2): 7th and 14th day after administration, tetrapeptide 0.622, ACP-tetrapeptide 4.987, prednisolone 50 μg/ear once a day, p<0.001 or p<0.01
Method: (§1) After the ear auricle of the NC/Nga mouse was shaved with a razor, the epilating agent was applied in an appropriate amount for the complete depilation. After the epilating agent was wiped off, Then, 100 mg of the AD-inducing reagent shown in Table 2 as below was uniformly applied to the ear auricle using a micropipette tip, thereby inducing atopic dermatitis for the first time. After shaving with a razor for necessary, 150 μL of a 4% SDS aqueous solution was uniformly applied to the ear auricle using a micropipette, dried with a cold air using a dryer, and air-dried for about 2 to 3 hours. Then, 100 mg of the same AD-inducing reagent was uniformly applied to the ear auricle using a micropipette tip, thereby inducing atopic dermatitis after 2 times. All treatments were carried out twice a week to be 6 times for a total of 3 weeks, thereby producing atopic dermatitis animal model. The mice of groups 2 to 5 were obtained by the atopic dermatitis animal model prepared in Experimental Method 3 as described above. The experimental substance and the control substance were uniformly applied to the ear auricle using a micropipette tip. From the day of the experimental substance administration (Day 0) to the day of the autopsy (Day 14), they were administered once a day for 2 weeks. Ear thickness was measured for each individual by calipers, and the ear area was photographed. Ear thickness measurement and photographing were performed once a week on the day of starting the experimental substance administration and thereafter.

[2] = tested on: atopic dermatitis animal model; test: Histopathological examination of ear epidermis and dermis (H&E scoring); assay type: in vivo, NC/Nga mouse; conditions: infiltration by inflammatory cells, p<0.05, FIGS. 8 and 9; for epidermis score level compared with group 2: hypertrophy, hyperkeratosis
Method: After the ear auricle of the NC/Nga mouse was shaved with a razor, the epilating agent was applied in an appropriate amount for the complete depilation. After the epilating agent was wiped off, Then, 100 mg of the AD-inducing reagent shown in Table 2 as below was uniformly applied to the ear auricle using a micropipette tip, thereby inducing atopic dermatitis for the first time. After shaving with a razor for necessary, 150 μL of a 4% SDS aqueous solution was uniformly applied to the ear auricle using a micropipette, dried with a cold air using a dryer, and air-dried for about 2 to 3 hours. Then, 100 mg of the same AD-inducing reagent was uniformly applied to the ear auricle using a micropipette tip, thereby inducing atopic dermatitis after 2 times. All treatments were carried out twice a week to be 6 times for a total of 3 weeks, thereby producing atopic dermatitis animal model. The mice of groups 2 to 5 were obtained by the atopic dermatitis animal model prepared in Experimental Method 3 as described above. The experimental substance and the control substance were uniformly applied to the ear auricle using a micropipette tip. From the day of the experimental substance administration (Day 0) to the day of the autopsy (Day 14), they were administered once a day for 2 weeks. On the day of the autopsy, ears were removed for the histopathological examination and fixed in 10% neutral buffered formalin solution. The fixed tissues were subject to the general tissue treatment such as reprofiling, dehydration, paraffin embedding, and dissection, thereby preparing specimens for histopathological examination. Then, hematoxylin and eosin (H & E) and TUNEL assays were performed on histopathologic specimens, and the light microscopy (Olympus BX53, Japan) was used to observe histopathologic changes. In the histopathologic evaluation using hematoxylin and eosin staining slides, in order to compare the degree of the lesion with the induced control group, the most severe lesion was selected, and then the hypertrophy, hyperkeratosis and infiltration by inflammatory cells were evaluated in the epidermis. In the dermis, the infiltration by inflammatory cells was evaluated. Scoring criteria are the same as 0 (no symptoms), 1 (mild), 2 (moderate), and 3 (severe) (Taniguchi Y et al 2003).

IgE = test: ELISA analysis of serum IgE in atopic dermatitis animal model; conditions: day of autopsy (Day 14)
[3] = tested on: atopic dermatitis animal model; test: Visual pathological evaluation (skin clinical index) in atopic dermatitis animal model; assay type: in vivo, NC/Nga mouse; conditions: 14th day after administration; p<0.05; FIG. 6
Method: as §1, with “[…] For each individual, 0 (none), 1 (mild), 2 (moderate) and 3 (severe)” for “From the day of the experimental substance administration (Day 0) to the day of the autopsy (Day 14), they”, “recorded” for “administered once a day”, “erythema/hemorrhage, edema, excoriation/erosion” for “2 weeks. Ear thickness was measured for each individual by calipers,”, “scaling/dryness. […]” for “the ear area was photographed. Ear thickness measurement and photographing were performed once a week on the day of starting the experimental substance administration and thereafter.”

ZO-1 (tight junction) = test: Recovery of ZO-1 broken by VEGF in HUVEC (confocal immunofluorescence); assay type: cell-based, Human; conditions: peptide pretreatment 30 minutes, VEGF 20 ng/ml 1 hour, FIGS. 18 and 19
Method: (§2) HUVECs were starved with M199 media supplemented with 1% FBS for 4 hours, inoculated on a 24-well plate containing glass at the number of 1×10^5 cells, and cultured for 24 hours to attach the cells to the glass. HUVECs were pretreated with the acetylated tetrapeptide and the non-acetylated tetrapeptide (—Ac) for 30 minutes and treated with VEGF at a concentration of 20 ng/ml for 1 hour. Thereafter, the cells were washed three times with PBS, fixed in 3.7% formaldehyde for 20 minutes, and treated with PBS containing 0.2% Triton X-100 to increase […] permeability. After blocking with 3% BSA for 1 hour, they were reacted with VE-cadherin (adherens junction) and ZO-1 (tight junction) antibodies at room temperature for 2 hours and washed three times with PBS. They were treated with Cy3 secondary antibodies, reacted at room temperature for 1 hour, washed twice with PBS, and stained with DAPI for 10 minutes. The huvec-attached glass was removed and mounted on a sliding glass.

histamine = test: ELISA analysis of serum histamine in atopic dermatitis animal model; assay type: in vivo, NC/Nga mouse; conditions: day of autopsy (Day 14)
Method: (§3) After the ear auricle of the NC/Nga mouse was shaved with a razor, the epilating agent was applied in an appropriate amount for the complete depilation. After the epilating agent was wiped off, Then, 100 mg of the AD-inducing reagent shown in Table 2 as below was uniformly applied to the ear auricle using a micropipette tip, thereby inducing atopic dermatitis for the first time.
(§4) After shaving with a razor for necessary, 150 μL of a 4% SDS aqueous solution was uniformly applied to the ear auricle using a micropipette, dried with a cold air using a dryer, and air-dried for about 2 to 3 hours. Then, 100 mg of the same AD-inducing reagent was uniformly applied to the ear auricle using a micropipette tip, thereby inducing atopic dermatitis after 2 times. All treatments were carried out twice a week to be 6 times for a total of 3 weeks, thereby producing atopic dermatitis animal model.
(§5) The mice of groups 2 to 5 were obtained by the atopic dermatitis animal model prepared in Experimental Method 3 as described above.
(§6) The experimental substance and the control substance were uniformly applied to the ear auricle using a micropipette tip. From the day of the experimental substance administration (Day 0) to the day of the autopsy (Day 14), they were administered once a day for 2 weeks.
On the day of the autopsy, blood samples were collected from the abdominal vein using a syringe. The serum isolated from the blood was analyzed for IgE and histamine using an ELISA kit.

[4] = tested on: VE-cadherin (adherens junction); test: Recovery of VE-cadherin broken by VEGF in HUVEC (confocal immunofluorescence); assay type: cell-based, Human; conditions: peptide pretreatment 30 minutes, VEGF 20 ng/ml 1 hour, FIGS. 16 and 17
Method: as §2

[5] = tested on: atopic mouse skin tissues; test: Immunohistochemical staining of atopic mouse skin tissue (angiogenic marker, inflammatory cells, keratin); assay type: in vivo, NC/Nga mouse
Method: as §3, §4, §5, §6
Atopy mouse skin tissues were immersed in Xylene three times for 5 minutes, 100% ethanol for 2 minutes, 95% ethanol for 2 minutes, 90% ethanol for 2 minutes, 70% ethanol for 2 minutes and D.W. for 2 minutes to remove paraffin and to perform hydration. After washing with PBS, they were treated with 0.2% Triton X-100 to increase cell permeability. After re-washing with PBS, they were reacted with blocking solution, 3% bovine serum albumin, for 1 hour. For inflammatory cells and keratin staining, they were reacted with F4/80 (sc-377009, Santa Cruz) and cytokeratin (NB600-579, NOVUSBIO) antibodies, respectively, at room temperature for 2 hours. After washing with PBS, they were treated with Texas Red (ab6787, Abcam) secondary antibody and reacted at room temperature for 60 minutes. The mounting solution was dropped on the tissue of the slide. Then, the tissue was covered with a cover slide, and the sample was observed under a fluorescence microscope. For analysis of the degree of angiogenesis, the atopic skin tissue was reacted with FITC-conjugated isolectin B4 (L2895, Sigma), a blood vessel marker at room temperature for 2 hours. The mounting solution was dropped on the tissue of the slide. Then, the tissue was covered with a cover slide, and the sample was observed under a fluorescence microscope
The mouse skin tissues stained with the respective markers were photographed using a fluorescence microscope (DMil, Leica, Germany), and fluorescence intensities were quantitatively analyzed using an ImageJ program (NIH, Bethesda, Md., USA).

Row | Compound | ear thickness compared with induced control group (group 2) [1] | epidermis score level compared with group 2 [2] | dermis score level compared with group 2 [2] | IgE level compared with group 2 (induced control) (IgE; p<0.001 or p<0.01, FIG. 7) | scaling/dryness level compared with group 2 [3] | ear thickness compared with normal control group (group 1) ([1]; 14th day after administration, p<0.001) | damage level of ZO-1 caused by VEGF (ZO-1 (tight junction)) | histamine level compared with prednisolone treated group (histamine; FIG. 7) | histamine level compared with group 2 (induced control) (histamine; p<0.001 or p<0.01, FIG. 7) | damage level of VE-cad caused by VEGF [4] | IgE level compared with prednisolone treated group (IgE; FIG. 7) | IgE level compared with normal control group (IgE; p<0.001 or p<0.01, FIG. 7) | angiogenesis (Isolectin B4 staining) ([5]; atopic mouse skin tissue, also similar to prednisolone treated group, FIG. 10) | inflammatory cell inflow (F4/80 staining) ([5]; atopic mouse skin tissue, also similar to prednisolone treated group, FIG. 11) | keratinization and fibrosis (cytokeratin staining) ([5]; atopic mouse skin tissue, also similar to prednisolone treated group, FIG. 12) | anti-atopic effect compared with prednisolone ([5]; treatment amount having a molar ratio lower than 1000 times that of prednisolone, FIG. 13)
1 | C[C@]12C=CC(=O)C=C1CC[C@@H]1[C@@H]2[C@@H](O)C[C@@]2(C)[C@H]1CC[C@]2(O)C(=O)CO [Prednisolone, prednisolone, reference compound] | significantly thinner | significantly lower | significantly lower | significantly lower | significantly lower |  |  |  |  |  |  |  |  |  |  | 
2 | RLYE [Tetrapeptide] | significantly thinner | significantly lower | significantly lower | significantly lower |  | significantly thicker | recovered to a level similar to that of the control group without VEGF treatment | lower than that of the prednisolone treated group | significantly lower | recovered to a level similar to that of the control group without VEGF treatment | lower than that of the prednisolone treated group | significantly higher | lower than that of the inducted control group | lower than that of the inducted control group | lower than that of the inducted control group | superiority to prednisolone
3 | Tetrapeptide (—Ac): non-acetylated tetrapeptides (RLYE) |  |  |  |  |  |  | recovered to a level similar to that of the control group without VEGF treatment |  |  | recovered to a level similar to that of the control group without VEGF treatment |  |  |  |  |  | 
